Seven compounds from article PMC4503722, “Novel Phenotypic Outcomes Identified for a Public Collection of Approved Drugs from a Publicly Accessible Panel of Assays” (PLoS ONE, 2015) can be followed below.

Assay [1] concerns endothelial tube formation in co-cultures of ECFCs and ADSCs treated with VEGF. Description: cells. It counts as cell-based, human.
In another assay the test system is DLD-1. Description: cells. It counts as cell-based. The note with it: basal.
For the next assay, the system named is SW480. Description: cells. It is filed as cell-based. To be noted: basal.
In assay [2] the test system is ECFC/ADSC co-culture cell nuclei number.
A further assay concerns HCT116. Description: cells. It counts as cell-based. The note with it: basal.
For a further assay, the system named is RKO. Description: cells. It is filed as cell-based. To be noted: basal.
The test system of the next assay is SNU-C1. Description: cells. It counts as cell-based. To be noted: basal.
Another assay relates to Colo320. Description: cells. It is filed as cell-based. The note with it: basal.
The test system of another assay is HT-29. Description: cells. It counts as cell-based. The note with it: basal.
Assay [3] has as its system HCT116 cells treated with a GSK3β inhibitor. Description: cells. It is filed as cell-based. To be noted: for IC50/EC50, GSK3b inh pretreated_Viability ATP HCT116 (assay number 26): GSK3b inh pretreated.
Where [4] appears, read: assay number 26, GSK3b inhibitor pretreated.

A value given as a limit tells only on which side of the number the result lay.

On to `CCC(C(=O)OCCOCCN(CC)CC)c1ccccc1.O=C(O)CC(O)(CC(=O)O)C(=O)O` (stereo not shown) [NCGC00160645-02], for which the “VEGF_ADSC\ECFC Angio CD31 TubeArea IC50/EC50” value in assay [1] is more than 10 µM. In the assay on DLD-1 (assay number 23), the “Basal_Viability ATP DLD-1 IC50/EC50” value is more than 20 µM. Moreover, the “Basal_Viability ATP SW480 IC50/EC50” value in the assay with SW480 (assay number 24) was more than 20 µM. In assay [2], the “VEGF_ADSC\ECFC Angio Hoechst NucArea IC50/EC50” value was more than 10 µM. In addition, in the assay with HCT116 (assay number 25), the “Basal_Viability ATP HCT116 IC50/EC50” value is more than 20 µM. Besides, the “Basal_Viability ATP RKO IC50/EC50” value in the assay with RKO (assay number 29) was more than 20 µM. Besides, in the assay on SNU-C1 (assay number 30), the “Basal_Viability ATP SNU-C1 IC50/EC50” value is more than 20 µM. Moreover, the “Basal_Viability ATP Colo 320 IC50/EC50” value in the assay on Colo320 (assay number 27) was more than 20 µM. The “Basal_Viability ATP HT-29 IC50/EC50” value in the assay on HT-29 (assay number 28) is more than 20 µM. Moreover, the “GSK3b inh pretreated_Viability ATP HCT116 IC50/EC50” value in assay [3] (setting [4]) is more than 20 µM.

For `CN1CCN(c2cc3c(nn2)Oc2ccccc2N3C)CC1` [NCGC00160646-02], the “VEGF_ADSC\ECFC Angio CD31 TubeArea IC50/EC50” value in assay [1] is more than 10 µM. Besides, in the assay with DLD-1 (assay number 23), the “Basal_Viability ATP DLD-1 IC50/EC50” value is on record as more than 20 µM. In the assay on SW480 (assay number 24), the “Basal_Viability ATP SW480 IC50/EC50” value is more than 20 µM. For the same compound, in [2], the “VEGF_ADSC\ECFC Angio Hoechst NucArea IC50/EC50” value was more than 10 µM. Moreover, the “Basal_Viability ATP HCT116 IC50/EC50” value in the assay on HCT116 (assay number 25) is reported as more than 20 µM. The “Basal_Viability ATP RKO IC50/EC50” value in the assay with RKO (assay number 29) was more than 20 µM. Moreover, the “Basal_Viability ATP SNU-C1 IC50/EC50” value in the assay with SNU-C1 (assay number 30) is more than 20 µM. Further, in the assay with Colo320 (assay number 27), the “Basal_Viability ATP Colo 320 IC50/EC50” value is listed as more than 20 µM. The “Basal_Viability ATP HT-29 IC50/EC50” value in the assay on HT-29 (assay number 28) is given as more than 20 µM. Further, in assay [3] (setting [4]), the “GSK3b inh pretreated_Viability ATP HCT116 IC50/EC50” value is more than 20 µM.

Turning to `O=[N+]([O-])c1cccc(S(=O)(=O)NCCNS(=O)(=O)c2cccc([N+](=O)[O-])c2)c1` [NCGC00160679-02], the “VEGF_ADSC\ECFC Angio CD31 TubeArea IC50/EC50” value in assay [1] is reported as more than 10 µM. Also, the “Basal_Viability ATP DLD-1 IC50/EC50” value in the assay on DLD-1 (assay number 23) is listed as more than 20 µM. Further, the “Basal_Viability ATP SW480 IC50/EC50” value in the assay with SW480 (assay number 24) is recorded as more than 20 µM. Moreover, the “VEGF_ADSC\ECFC Angio Hoechst NucArea IC50/EC50” value in [2] is listed as more than 10 µM. Further, the “Basal_Viability ATP HCT116 IC50/EC50” value in the assay with HCT116 (assay number 25) is recorded as more than 20 µM. For the same compound, the “Basal_Viability ATP RKO IC50/EC50” value with RKO (assay number 29) is recorded as more than 20 µM. Moreover, the “Basal_Viability ATP SNU-C1 IC50/EC50” value with SNU-C1 (assay number 30) is reported as more than 20 µM. Besides, the “Basal_Viability ATP Colo 320 IC50/EC50” value in the assay on Colo320 (assay number 27) is reported as more than 20 µM. The “Basal_Viability ATP HT-29 IC50/EC50” value in the assay with HT-29 (assay number 28) is given as more than 20 µM. Besides, the “GSK3b inh pretreated_Viability ATP HCT116 IC50/EC50” value in [3] (setting [4]) was more than 20 µM.

Turning to `CSc1ccc(/C=C2/C(C)=C(CC(=O)O)c3cc(F)ccc32)cc1` [NCGC00161601-02], the “IC50/EC50, VEGF_ADSC\ECFC Angio CD31 TubeArea (assay number 2)” value in [1] is listed as more than 10 µM. Moreover, in the assay with DLD-1, the “IC50/EC50, Basal_Viability ATP DLD-1 (assay number 23)” value is recorded as more than 20 µM. In addition, in the assay on SW480, the “IC50/EC50, Basal_Viability ATP SW480 (assay number 24)” value turned out to be 19.964 µM. Further, the “IC50/EC50, VEGF_ADSC\ECFC Angio Hoechst NucArea (assay number 3)” value in [2] is listed as more than 10 µM. Further, the “IC50/EC50, Basal_Viability ATP HCT116 (assay number 25)” value in the assay with HCT116 was more than 20 µM. The “IC50/EC50, Basal_Viability ATP RKO (assay number 29)” value in the assay on RKO is more than 20 µM. In addition, the “IC50/EC50, Basal_Viability ATP SNU-C1 (assay number 30)” value with SNU-C1 was found to be 11.9864 µM. Besides, the “IC50/EC50, Basal_Viability ATP Colo 320 (assay number 27)” value in the assay on Colo320 was more than 20 µM. The “IC50/EC50, Basal_Viability ATP HT-29 (assay number 28)” value with HT-29 is more than 20 µM. Also, the “IC50/EC50, GSK3b inh pretreated_Viability ATP HCT116 (assay number 26)” value in assay [3] is on record as more than 20 µM.

Turning to `C=CCN1CC[C@]23CCCC[C@H]2[C@H]1Cc1ccc(O)cc13` [NCGC00162247-06], the “IC50/EC50, VEGF_ADSC\ECFC Angio CD31 TubeArea (assay number 2)” value in [1] is more than 10 µM. In addition, the “IC50/EC50, Basal_Viability ATP DLD-1 (assay number 23)” value with DLD-1 was more than 20 µM. The “IC50/EC50, Basal_Viability ATP SW480 (assay number 24)” value in the assay with SW480 is more than 20 µM. The “IC50/EC50, VEGF_ADSC\ECFC Angio Hoechst NucArea (assay number 3)” value in assay [2] is more than 10 µM. Moreover, the “IC50/EC50, Basal_Viability ATP HCT116 (assay number 25)” value with HCT116 was more than 20 µM. Besides, the “IC50/EC50, Basal_Viability ATP RKO (assay number 29)” value in the assay with RKO is more than 20 µM. Also, the “IC50/EC50, Basal_Viability ATP SNU-C1 (assay number 30)” value in the assay with SNU-C1 is given as more than 20 µM. For the same compound, the “IC50/EC50, Basal_Viability ATP Colo 320 (assay number 27)” value in the assay with Colo320 is more than 20 µM. Further, in the assay with HT-29, the “IC50/EC50, Basal_Viability ATP HT-29 (assay number 28)” value was more than 20 µM. For the same compound, the “IC50/EC50, GSK3b inh pretreated_Viability ATP HCT116 (assay number 26)” value in assay [3] is more than 20 µM.

A word on the IC50: it is the concentration that gives 50% inhibition. As to `COP(=S)(OC)Oc1ccc(Sc2ccc(OP(=S)(OC)OC)cc2)cc1` [NCGC00163910-05], the concentration for half-maximal inhibition (IC50) in [1] (read-out: VEGF_ADSC\ECFC Angio CD31 TubeArea summarized IC50) is more than 10 µM; in the assay with DLD-1 (assay number 23, read-out: Basal_Viability ATP DLD-1 summarized IC50) it was more than 20 µM; in the assay with SW480 (assay number 24, read-out: Basal_Viability ATP SW480 summarized IC50), 0.0118 µM; in [2] (read-out: VEGF_ADSC\ECFC Angio Hoechst NucArea summarized IC50), more than 10 µM; with HCT116 (assay number 25, read-out: Basal_Viability ATP HCT116 summarized IC50), more than 20 µM; in the assay with RKO (assay number 29, read-out: Basal_Viability ATP RKO summarized IC50), 12.1 µM. Moreover, the IC50 in the assay on SNU-C1 (assay number 30, read-out: Basal_Viability ATP SNU-C1 summarized IC50) was 3.03 µM; in the assay on Colo320 (assay number 27, read-out: Basal_Viability ATP Colo 320 summarized IC50), more than 20 µM; in the assay on HT-29 (assay number 28, read-out: Basal_Viability ATP HT-29 summarized IC50) it was more than 20 µM; in assay [3] (assay number 26, GSK3b inhibitor pretreated, read-out: GSK3b inh pretreated_Viability ATP HCT116 summarized IC50), more than 20 µM.

As for `COCC(C)N(C(=O)CCl)c1c(C)csc1C` (stereo not shown) [NCGC00163935-05], the “VEGF_ADSC\ECFC Angio CD31 TubeArea IC50/EC50” value in assay [1] was more than 10 µM. The “Basal_Viability ATP DLD-1 IC50/EC50” value in the assay with DLD-1 (assay number 23) is more than 20 µM. Moreover, the “Basal_Viability ATP SW480 IC50/EC50” value with SW480 (assay number 24) was more than 20 µM. In addition, the “VEGF_ADSC\ECFC Angio Hoechst NucArea IC50/EC50” value in [2] is listed as more than 10 µM. Moreover, the “Basal_Viability ATP HCT116 IC50/EC50” value in the assay on HCT116 (assay number 25) is given as more than 20 µM. Moreover, the “Basal_Viability ATP RKO IC50/EC50” value in the assay with RKO (assay number 29) is listed as more than 20 µM. The “Basal_Viability ATP SNU-C1 IC50/EC50” value with SNU-C1 (assay number 30) is more than 20 µM. Moreover, the “Basal_Viability ATP Colo 320 IC50/EC50” value in the assay on Colo320 (assay number 27) is more than 20 µM. For the same compound, in the assay on HT-29 (assay number 28), the “Basal_Viability ATP HT-29 IC50/EC50” value is recorded as more than 20 µM. The “GSK3b inh pretreated_Viability ATP HCT116 IC50/EC50” value in assay [3] (setting [4]) is reported as more than 20 µM.
